Measurements reported in publication PMC6887723, “Design and Synthesis of 4-(Heterocyclic Substituted Amino)-1H-Pyrazole-3-Carboxamide Derivatives and Their Potent Activity against Acute Myeloid Leukemia (AML)” (International Journal of Molecular Sciences, 2019).
Values joined by “and” are separate entries in the source; they are usually repeats but may differ in a detail not shown here. Equal values may be shown once.

How the values were obtained:
CDK2 = molecular target: T1, CDK2 (Homo sapiens, UniProt P24941); experiment: CDK2 kinase activity assay (Hot-Spot); assay type: biochemical; conditions: 10 μM ATP; mean ± SD, three independent experiments
T1 construct: purchased Reaction Biology Corp
Protocol: (§1) Activities of kinases were determined using Hot-SpotSM kinase assay which was performed by Reaction Biology Corp. (Malvern PA, USA) as described previously.

CDK4 = molecular target: T2, CDK4 (Homo sapiens, UniProt P11802); experiment: CDK4 kinase activity assay (Hot-Spot); assay type: biochemical; conditions: 10 μM ATP; mean ± SD, three independent experiments
T2 construct: purchased Reaction Biology Corp
T2 sequence (P11802 whole entry): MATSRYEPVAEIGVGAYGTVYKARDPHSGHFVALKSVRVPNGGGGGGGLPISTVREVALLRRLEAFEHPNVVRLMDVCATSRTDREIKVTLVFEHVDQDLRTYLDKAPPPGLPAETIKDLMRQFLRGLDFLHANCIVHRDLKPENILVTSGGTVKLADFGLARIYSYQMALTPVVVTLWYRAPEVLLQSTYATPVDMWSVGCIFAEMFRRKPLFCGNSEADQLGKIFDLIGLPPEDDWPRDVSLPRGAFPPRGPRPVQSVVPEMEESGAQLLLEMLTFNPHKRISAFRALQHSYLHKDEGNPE
T2 sequence (P24385 whole entry partner): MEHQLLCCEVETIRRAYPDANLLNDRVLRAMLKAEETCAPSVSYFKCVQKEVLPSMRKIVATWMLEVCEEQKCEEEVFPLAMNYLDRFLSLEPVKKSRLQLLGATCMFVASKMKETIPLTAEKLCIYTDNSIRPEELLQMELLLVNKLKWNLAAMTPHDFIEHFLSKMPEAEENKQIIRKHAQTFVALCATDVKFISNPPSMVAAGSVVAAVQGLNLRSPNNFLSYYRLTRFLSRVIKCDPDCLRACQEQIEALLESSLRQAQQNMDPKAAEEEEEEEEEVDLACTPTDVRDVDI
Protocol: as §1

MV4-11 = experiment: Cell growth inhibition assay (CellTiter-Glo); assay type: cell-based; conditions: Homo sapiens, 72 h, highest test concentration 1 μM, mean ± SD, three independent experiments
Protocol: The human AML cell line MV4-11 was purchased from the American Type Culture Collection (ATCC) (Manassas, VA, USA). MV4-11 was cultured in IMDM media (Corning, Crown Bioscience Inc., Taicang, China) with 10% FBS and supplemented with 2% L-glutamine and 1% pen/strep. The MV4-11 cell line was maintained in culture media at 37 °C with 5% CO2. The effects of target compounds on MV4-11 proliferation was performed by Crown Bioscience Inc. Cells were grown in 96-well culture plates (10,000/well). The compounds of various concentrations were added into the plates. Cell proliferation was determined after treatment with compounds for 72 h. Cell viability was measured using the CellTiter-Glo assay (Promega, Crown Bioscience Inc., Taicang, China) according to the manufacturer’s instructions, and luminescence was measured in a multilabel reader (Envision2014, PerkinElmer, Crown Bioscience Inc., Taicang, China). Data were normalized to the control group (DMSO) and represented by the mean of three independent measurements with standard error of <20%. IC50 values were calculated using Prism 5.0 (GraphPad Software, San Diego, CA, USA).

FLT3 = molecular target: T3, FLT3 (Homo sapiens, UniProt P36888); experiment: FLT3 kinase activity assay (Hot-Spot); assay type: biochemical; conditions: 10 μM ATP; mean ± SD, three independent experiments
T3 construct: purchased Reaction Biology Corp
T3 sequence (P36888 27-993): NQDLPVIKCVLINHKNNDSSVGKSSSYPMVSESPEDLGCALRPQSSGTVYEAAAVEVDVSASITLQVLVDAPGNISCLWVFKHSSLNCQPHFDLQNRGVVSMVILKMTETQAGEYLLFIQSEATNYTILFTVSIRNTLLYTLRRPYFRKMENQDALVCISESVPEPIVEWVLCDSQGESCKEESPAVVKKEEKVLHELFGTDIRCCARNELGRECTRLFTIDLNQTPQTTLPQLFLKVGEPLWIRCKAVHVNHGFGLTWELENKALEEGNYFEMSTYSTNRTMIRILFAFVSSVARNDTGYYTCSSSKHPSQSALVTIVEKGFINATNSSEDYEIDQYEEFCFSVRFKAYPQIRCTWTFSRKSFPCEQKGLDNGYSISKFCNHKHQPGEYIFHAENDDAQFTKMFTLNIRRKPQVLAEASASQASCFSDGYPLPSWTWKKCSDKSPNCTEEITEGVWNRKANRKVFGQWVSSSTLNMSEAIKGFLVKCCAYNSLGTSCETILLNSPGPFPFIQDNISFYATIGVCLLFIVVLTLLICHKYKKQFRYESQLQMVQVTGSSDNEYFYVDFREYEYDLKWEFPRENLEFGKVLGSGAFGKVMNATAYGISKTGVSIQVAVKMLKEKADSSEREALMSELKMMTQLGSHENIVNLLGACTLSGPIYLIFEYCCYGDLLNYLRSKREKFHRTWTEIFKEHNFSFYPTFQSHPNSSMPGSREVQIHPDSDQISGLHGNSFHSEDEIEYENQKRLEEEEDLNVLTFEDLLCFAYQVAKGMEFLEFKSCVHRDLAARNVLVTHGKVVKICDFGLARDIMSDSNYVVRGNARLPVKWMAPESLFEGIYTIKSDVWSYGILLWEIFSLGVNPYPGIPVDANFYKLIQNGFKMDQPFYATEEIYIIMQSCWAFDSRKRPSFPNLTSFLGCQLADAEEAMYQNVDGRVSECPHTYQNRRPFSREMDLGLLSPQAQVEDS
Protocol: as §1

BaF3 (FLT3 (ITD-F691L)) = experiment: Antiproliferative activity in BaF3 cells transformed with FLT3-ITD-F691L; assay type: cell-based; conditions: Mus musculus, Table S2

Row | SMILES | melting point | IC50 (CDK2) | IC50 (CDK4) | IC50 (MV4-11) | IC50 (FLT3) | IC50 (BaF3 (FLT3 (ITD-F691L)))
1 | CN1CCCN(c2cccc(NC(=O)c3n[nH]cc3Nc3ncnc4[nH]ccc34)c2)CC1 [Compound 8e] | 215 to 216 °C | 5.49 ± 0.42 nM | 51 ± 0.88 nM | 38.3 ± 1.21 nM | 2.71 ± 0.31 nM | 
2 | O=C(Nc1ccc(C(=O)N2CCOCC2)cc1)c1n[nH]cc1Nc1ncnc2sccc12 [Compound 8a] | 243 to 244 °C | 10.4 ± 0.41 nM | 33 ± 0.94 nM |  | 17.8 ± 0.89 nM | 
3 | O=C(Nc1ccc(N2CCNCC2)cn1)c1n[nH]cc1Nc1ncnc2[nH]ccc12 [Compound 8l, 4-((7H-Pyrrolo[2,3-d]pyrimidin-4-yl)amino)-N-(5-(piperazin-1-yl)pyridin-2-yl)-1H-pyrazole-3-carboxamide] | 288 to 290 °C | 157 ± 3.22 nM | 23.1 ± 0.55 nM | 134 ± 1.64 nM | 13.8 ± 0.37 nM | 
4 | O=C(Nc1ccc(N2CC3CC2CN3)cc1)c1n[nH]cc1Nc1ncnc2[nH]ccc12 (centres unmarked) [Compound 8j, N-(4-(2,5-Diazabicyclo[2.2.1]heptan-2-yl)phenyl)-4-((7 H-pyrrolo[2,3-d]pyrimidin-4-yl)amino)-1H-pyrazole-3-carboxamide] | 248 to 249 °C | 9.64 ± 0.46 nM | 17.8 ± 0.82 nM | 21.4 ± 0.56 nM | 2.81 ± 0.11 nM | 
5 | O=C(NC1CCNCC1)c1n[nH]cc1Nc1ncnc2[nH]ccc12 [Compound 3d] |  | 63.2 ± 0.91 nM | 77.4 ± 1.1 nM |  | 74.3 ± 1.21 nM | 
6 | CN1CCCN(c2cccc(NC(=O)c3n[nH]cc3Nc3ncnc4sccc34)c2)CC1 [Compound 8f] | > 300 °C | 31.7 ± 0.55 nM | 67.3 ± 1.09 nM | 54.1 ± 1.73 nM | 8.07 ± 0.21 nM | 
7 | O=C(Nc1ccc(N2CCNCC2)cn1)c1n[nH]cc1Nc1ncnc2c1CCC2 [Compound 8q] | > 290 °C | 509 ± 10.3 nM | 123.4 ± 1.09 nM | 458 ± 9.2 nM | 20.2 ± 0.35 nM | 
8 | CN1CCN(C(=O)c2ccc(NC(=O)c3n[nH]cc3Nc3ncnc4sccc34)cc2)CC1 [Compound 8b] | 280 to 281 °C | 8.42 ± 0.52 nM | 30.1 ± 0.99 nM | 35.2 ± 0.83 nM | 19.18 ± 0.18 nM | 
9 | O=C(Nc1ccc(N2CCNCC2)cn1)c1n[nH]cc1Nc1ncnc2sc3c(c12)CCC3 [Compound 8n] |  | 98.7 ± 1.33 nM | 4.85 ± 0.2 nM | 19.9 ± 0.74 nM | 1.88 ± 0.09 nM | 
10 | O=C(Nc1ccncc1)c1n[nH]cc1Nc1ncnc2[nH]ccc12 [Compound 3b] |  | 4.31 ± 0.91 nM | 54.2 ± 1.26 nM |  | 5.83 ± 0.74 nM | 
11 | CN1CCN(Cc2ccc(NC(=O)c3n[nH]cc3Nc3ncnc4[nH]ccc34)cc2)CC1 [FN-1501, 4-((7H-Pyrrolo[2,3-D]Pyrimidin-4-Yl)Amino)-N-(4-((4-Methylpiperazin-1-Yl)Methyl)Phenyl)-1H-Pyrazole-3-Carboxamide, reference compound] |  | 1.02 nM and 2.33 nM | 0.39 nM and 1.02 nM | 9 ± 0.27 nM |  | 55.9 nM
12 | CN1CCCN(c2ccc(NC(=O)c3n[nH]cc3Nc3ncnc4sccc34)cc2)CC1 [Compound 8c] | 223 to 224 °C | 3.51 ± 0.19 nM | 2.41 ± 0.21 nM | 4.28 ± 0.35 nM | 0.176 ± 0.09 nM | 
13 | O=C(Nc1ccc(N2CC3CC2CN3)cc1)c1n[nH]cc1Nc1ncnc2sc3c(c12)CCC3 (centres unmarked) [Compound 8s] |  | 5.43 ± 0.41 nM | 4.36 ± 0.19 nM | 9.13 ± 0.11 nM | 0.82 ± 0.003 nM | 
14 | O=C(Nc1ccc(N2CCNCC2)cn1)c1n[nH]cc1Nc1ncnc2sccc12 [Compound 8k, N-(5-(Piperazin-1-yl)pyridin-2-yl)-4-(thieno[2,3-d]pyrimidin-4-ylamino)-1H-pyrazole-3-carboxamide] | > 300 °C | 315.2 ± 2.3 nM | 22.3 ± 0.92 nM | 51.1 ± 1.34 nM | 6.03 ± 0.16 nM | 
15 | O=C(Nc1ccc(N2CCNCC2)cc1)c1n[nH]cc1Nc1ncnc2[nH]ccc12 [Compound 8h] | 304 to 305 °C | 0.282 ± 0.013 nM | 1.19 ± 0.09 nM | 7.3 ± 0.33 nM | 0.038 ± 0.001 nM | 
16 | O=C(Nc1ccc(N2CC3CC2CN3)cc1)c1n[nH]cc1Nc1ncnc2sccc12 (centres unmarked) [Compound 8i] |  | 24.5 ± 0.57 nM | 9.17 ± 0.33 nM | 27.2 ± 0.43 nM | 3.24 ± 0.14 nM | 
17 | CN1CCCN(c2ccc(NC(=O)c3n[nH]cc3Nc3ncnc4[nH]ccc34)cc2)CC1 [Compound 8d] | 263 to 264 °C | 2.32 ± 0.014 nM | 5.32 ± 0.31 nM | 9.5 ± 0.01 nM | 0.262 ± 0.01 nM | 
18 | O=C(Nc1ccc(N2CCNCC2)cn1)c1n[nH]cc1Nc1ncnc2sc3c(c12)CCCC3 [Compound 8p] | 266 to 267 °C | 86.4 ± 1.36 nM | 3.81 ± 0.26 nM |  | 7.45 ± 0.19 nM | 
19 | O=C(Nc1ccc(N2CCOCC2)cc1)c1n[nH]cc1Nc1ncnc2sc3c(c12)CCCC3 [Compound 8r] | 267 to 268 °C | 9.29 ± 0.64 nM | 24.9 ± 0.29 nM | 3.28 ± 0.19 nM | 3.8 ± 0.1 nM | 
20 | O=C(Nc1ccc(N2CCOCC2)cc1)c1n[nH]cc1Nc1ncnc2[nH]ccc12 [Compound 8g] | 303 to 304 °C | 3.74 ± 0.16 nM | 10.6 ± 0.24 nM | 16 ± 0.43 nM | 1.945 ± 0.013 nM | 
21 | CC(C)(C)OC(=O)N1CCC(NC(=O)c2n[nH]cc2Nc2ncnc3[nH]ccc23)CC1 [Compound 3c] | 268 to 269 °C | 32.8 ± 1.34 nM | 87.1 ± 1.26 nM |  | 88.8 ± 1.06 nM | 
22 | O=C(Nc1ccccc1)c1n[nH]cc1Nc1ncnc2[nH]ccc12 [Compound 3a] |  | 0.2 ± 0.01 nM | 34.1 ± 0.94 nM |  | 5.1 ± 0.46 nM | 
23 | O=C(Nc1ccc(N2CCNCC2)cn1)c1n[nH]cc1Nc1ncnc2sc3c(c12)CCCCC3 [Compound 8o] |  | 109.2 ± 1.01 nM | 1.81 ± 0.023 nM | 45.4 ± 1.07 nM | 8.28 ± 0.12 nM | 
